Measurements taken from the supplement of paper PMC12463676, “Small-molecule dissolution of stress granules by redox modulation benefits ALS models” (Nature Chemical Biology, 2025).

Key:
lipoamide = compound: NC(=O)CCCCC1CCSS1 [lipoamide]; test: thermal stability z-score vs DMSO; higher = more thermally stabilized by treatment; conditions: HeLa, lipoamide concentration 100 µM
Experimental: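 Cellular thermal proteome profiling in HeLa cells. Cells were treated with 100 µM lipoamide for 1 h, with or without 1 mM arsenate for a further 1 h, then heated to ten temperatures (37-66.3 °C), and soluble protein was quantified by TMT mass spectrometry relative to 0.1% DMSO controls. The thermal stability score (sum of log2 fold changes minus the abundance score) was transformed to a z-score; mean of n = 3 experiments.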

potassium arsenate = compound: O=[As]([O-])(O)O.[K+] [potassium arsenate]; test: as above; conditions: HeLa; arsenate concentration 1 mM
Experimental: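 Cellular thermal proteome profiling in HeLa cells treated with 1 mM arsenate for 1 h (DMSO pretreatment), heated to ten temperatures (37-66.3 °C). Soluble protein was quantified by TMT mass spectrometry relative to DMSO controls; the thermal stability score was transformed to a z-score; mean of n = 3 experiments.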

[1] = arsenate co-treatment: 1 mM arsenate 1 h
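Note: each temperature applied for 3 min, abundance score taken as mean log2 fold change at the two lowest temperatures, z-score obtained by mean subtraction and division by SD.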

UniProt Q12824, sequence (Q12824 whole entry): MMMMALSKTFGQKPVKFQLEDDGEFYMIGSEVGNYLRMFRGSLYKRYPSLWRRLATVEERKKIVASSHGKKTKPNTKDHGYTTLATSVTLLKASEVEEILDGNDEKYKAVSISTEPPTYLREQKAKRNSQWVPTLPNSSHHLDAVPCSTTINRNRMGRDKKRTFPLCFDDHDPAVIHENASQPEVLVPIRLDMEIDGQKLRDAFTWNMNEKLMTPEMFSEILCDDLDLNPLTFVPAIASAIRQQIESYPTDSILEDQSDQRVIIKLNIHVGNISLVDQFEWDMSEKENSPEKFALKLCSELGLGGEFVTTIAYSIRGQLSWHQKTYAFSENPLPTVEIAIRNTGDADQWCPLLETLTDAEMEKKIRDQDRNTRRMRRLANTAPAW
UniProt A6NHR9, sequence (A6NHR9 whole entry): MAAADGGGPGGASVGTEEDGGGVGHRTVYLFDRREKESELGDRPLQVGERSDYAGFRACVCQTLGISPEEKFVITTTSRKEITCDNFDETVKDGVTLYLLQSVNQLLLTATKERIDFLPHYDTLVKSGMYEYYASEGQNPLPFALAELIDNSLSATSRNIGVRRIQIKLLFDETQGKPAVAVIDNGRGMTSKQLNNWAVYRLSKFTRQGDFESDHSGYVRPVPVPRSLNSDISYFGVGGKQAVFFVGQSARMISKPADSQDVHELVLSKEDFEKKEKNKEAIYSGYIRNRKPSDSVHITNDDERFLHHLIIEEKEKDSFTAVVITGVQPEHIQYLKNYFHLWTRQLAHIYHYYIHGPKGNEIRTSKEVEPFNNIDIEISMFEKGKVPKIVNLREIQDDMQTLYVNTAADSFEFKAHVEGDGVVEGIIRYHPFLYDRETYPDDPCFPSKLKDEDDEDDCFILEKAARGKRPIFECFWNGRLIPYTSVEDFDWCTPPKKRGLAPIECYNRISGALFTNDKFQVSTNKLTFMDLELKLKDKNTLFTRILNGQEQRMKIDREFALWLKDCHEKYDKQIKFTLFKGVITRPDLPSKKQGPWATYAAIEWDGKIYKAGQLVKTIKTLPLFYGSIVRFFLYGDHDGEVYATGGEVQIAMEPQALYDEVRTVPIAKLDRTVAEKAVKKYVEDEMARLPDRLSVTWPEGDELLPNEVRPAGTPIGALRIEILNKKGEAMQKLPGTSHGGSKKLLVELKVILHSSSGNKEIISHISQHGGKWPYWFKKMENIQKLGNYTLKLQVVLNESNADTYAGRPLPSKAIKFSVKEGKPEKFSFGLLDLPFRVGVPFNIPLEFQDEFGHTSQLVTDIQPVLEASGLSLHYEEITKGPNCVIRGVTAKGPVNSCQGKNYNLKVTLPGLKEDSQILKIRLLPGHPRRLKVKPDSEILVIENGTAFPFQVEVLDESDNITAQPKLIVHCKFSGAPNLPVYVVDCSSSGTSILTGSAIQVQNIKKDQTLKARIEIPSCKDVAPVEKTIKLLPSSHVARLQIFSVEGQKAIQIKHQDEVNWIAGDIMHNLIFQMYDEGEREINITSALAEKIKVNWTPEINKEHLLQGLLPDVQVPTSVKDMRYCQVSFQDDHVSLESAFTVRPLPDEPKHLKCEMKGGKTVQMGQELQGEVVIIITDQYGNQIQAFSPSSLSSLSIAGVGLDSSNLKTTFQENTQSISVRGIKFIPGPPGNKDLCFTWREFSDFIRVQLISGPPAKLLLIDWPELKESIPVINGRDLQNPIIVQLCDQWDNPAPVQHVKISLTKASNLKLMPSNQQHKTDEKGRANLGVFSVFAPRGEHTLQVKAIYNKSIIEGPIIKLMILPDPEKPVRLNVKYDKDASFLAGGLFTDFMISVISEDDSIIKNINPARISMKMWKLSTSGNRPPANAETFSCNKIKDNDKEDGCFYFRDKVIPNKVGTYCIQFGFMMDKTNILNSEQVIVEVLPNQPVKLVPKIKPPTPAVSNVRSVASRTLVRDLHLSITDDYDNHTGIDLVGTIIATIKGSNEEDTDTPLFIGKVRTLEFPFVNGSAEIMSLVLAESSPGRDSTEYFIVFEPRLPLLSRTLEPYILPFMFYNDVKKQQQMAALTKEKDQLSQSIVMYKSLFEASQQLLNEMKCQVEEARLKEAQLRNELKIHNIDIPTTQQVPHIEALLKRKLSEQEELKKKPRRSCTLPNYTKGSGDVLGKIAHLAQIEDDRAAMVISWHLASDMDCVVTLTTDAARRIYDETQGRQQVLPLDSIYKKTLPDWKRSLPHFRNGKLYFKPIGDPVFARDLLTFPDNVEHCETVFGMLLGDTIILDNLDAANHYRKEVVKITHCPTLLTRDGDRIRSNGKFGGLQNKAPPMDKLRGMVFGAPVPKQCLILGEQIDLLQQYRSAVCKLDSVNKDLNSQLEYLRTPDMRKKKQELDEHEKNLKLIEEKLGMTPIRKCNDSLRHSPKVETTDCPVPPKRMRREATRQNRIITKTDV
UniProt Q9NWH9, sequence (Q9NWH9 whole entry): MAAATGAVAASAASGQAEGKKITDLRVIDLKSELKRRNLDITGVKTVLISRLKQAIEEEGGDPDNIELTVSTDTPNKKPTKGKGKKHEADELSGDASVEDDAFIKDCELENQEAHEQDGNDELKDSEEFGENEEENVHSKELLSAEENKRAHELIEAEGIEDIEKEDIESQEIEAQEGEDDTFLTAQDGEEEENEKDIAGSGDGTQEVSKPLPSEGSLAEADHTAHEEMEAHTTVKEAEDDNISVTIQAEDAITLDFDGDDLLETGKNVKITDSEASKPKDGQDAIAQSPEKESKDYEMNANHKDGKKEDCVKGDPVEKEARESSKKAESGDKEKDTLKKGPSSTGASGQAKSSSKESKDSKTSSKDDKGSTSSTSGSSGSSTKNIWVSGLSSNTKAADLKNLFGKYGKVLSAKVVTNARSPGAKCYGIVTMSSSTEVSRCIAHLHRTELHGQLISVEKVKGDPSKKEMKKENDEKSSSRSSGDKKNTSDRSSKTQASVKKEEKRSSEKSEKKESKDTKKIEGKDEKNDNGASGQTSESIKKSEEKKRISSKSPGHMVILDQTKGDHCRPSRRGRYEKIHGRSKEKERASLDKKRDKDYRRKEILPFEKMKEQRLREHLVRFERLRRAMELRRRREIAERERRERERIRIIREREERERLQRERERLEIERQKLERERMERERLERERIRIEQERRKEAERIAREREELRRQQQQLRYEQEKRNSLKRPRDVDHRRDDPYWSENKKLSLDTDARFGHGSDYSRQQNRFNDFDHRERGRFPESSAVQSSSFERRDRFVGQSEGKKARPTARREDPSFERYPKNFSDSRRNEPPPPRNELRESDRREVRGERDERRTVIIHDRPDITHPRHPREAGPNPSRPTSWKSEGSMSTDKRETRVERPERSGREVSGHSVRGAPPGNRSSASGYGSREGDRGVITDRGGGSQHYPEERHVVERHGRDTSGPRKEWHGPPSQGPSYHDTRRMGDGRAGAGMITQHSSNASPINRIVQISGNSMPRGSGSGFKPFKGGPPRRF
UniProt O95391, sequence (O95391 whole entry): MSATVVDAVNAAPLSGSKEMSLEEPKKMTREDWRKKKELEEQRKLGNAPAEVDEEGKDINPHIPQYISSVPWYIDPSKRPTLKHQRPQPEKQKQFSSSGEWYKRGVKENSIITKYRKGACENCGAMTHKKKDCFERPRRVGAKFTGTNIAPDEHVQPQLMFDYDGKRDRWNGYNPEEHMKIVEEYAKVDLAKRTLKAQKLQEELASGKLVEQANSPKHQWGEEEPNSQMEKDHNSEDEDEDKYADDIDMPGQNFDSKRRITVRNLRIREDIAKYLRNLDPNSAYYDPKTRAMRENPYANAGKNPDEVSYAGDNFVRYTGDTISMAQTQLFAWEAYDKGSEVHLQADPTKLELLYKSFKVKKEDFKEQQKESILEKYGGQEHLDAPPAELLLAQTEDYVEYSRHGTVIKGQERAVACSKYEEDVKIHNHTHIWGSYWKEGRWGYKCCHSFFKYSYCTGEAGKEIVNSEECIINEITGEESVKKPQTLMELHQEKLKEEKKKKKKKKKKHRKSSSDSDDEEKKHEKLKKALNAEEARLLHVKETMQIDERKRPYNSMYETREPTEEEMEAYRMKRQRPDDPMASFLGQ
UniProt Q96SB8, sequence (Q96SB8 whole entry): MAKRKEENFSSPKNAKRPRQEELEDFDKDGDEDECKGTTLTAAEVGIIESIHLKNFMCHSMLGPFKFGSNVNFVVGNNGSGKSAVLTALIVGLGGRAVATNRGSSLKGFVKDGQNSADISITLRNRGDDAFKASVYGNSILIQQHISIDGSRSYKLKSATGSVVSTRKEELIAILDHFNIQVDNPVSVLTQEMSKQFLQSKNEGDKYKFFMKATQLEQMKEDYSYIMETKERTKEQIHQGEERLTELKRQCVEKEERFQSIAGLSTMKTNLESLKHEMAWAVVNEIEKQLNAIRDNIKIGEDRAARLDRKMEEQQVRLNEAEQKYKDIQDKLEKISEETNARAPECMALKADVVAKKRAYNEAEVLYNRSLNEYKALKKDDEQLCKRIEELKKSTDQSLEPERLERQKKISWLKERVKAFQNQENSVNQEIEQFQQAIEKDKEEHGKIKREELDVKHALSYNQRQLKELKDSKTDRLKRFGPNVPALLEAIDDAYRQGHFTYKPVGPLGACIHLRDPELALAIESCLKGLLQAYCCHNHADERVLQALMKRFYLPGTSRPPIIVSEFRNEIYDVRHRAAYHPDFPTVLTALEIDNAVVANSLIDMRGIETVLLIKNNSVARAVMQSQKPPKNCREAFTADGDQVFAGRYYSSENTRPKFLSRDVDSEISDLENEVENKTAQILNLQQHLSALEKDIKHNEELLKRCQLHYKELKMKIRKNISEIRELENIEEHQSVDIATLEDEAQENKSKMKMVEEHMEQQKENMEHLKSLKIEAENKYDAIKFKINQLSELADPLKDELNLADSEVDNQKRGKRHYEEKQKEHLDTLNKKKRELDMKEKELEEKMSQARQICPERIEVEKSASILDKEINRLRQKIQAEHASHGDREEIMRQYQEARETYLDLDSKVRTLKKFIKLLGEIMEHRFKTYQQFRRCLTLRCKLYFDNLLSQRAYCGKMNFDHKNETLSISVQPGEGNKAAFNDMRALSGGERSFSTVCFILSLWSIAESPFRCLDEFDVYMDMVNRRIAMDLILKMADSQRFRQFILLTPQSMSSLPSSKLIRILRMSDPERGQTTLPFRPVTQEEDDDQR

| Target | thermal stability z-score (lipoamide; [1]) | thermal stability z-score (lipoamide; arsenate co-treatment: none) | thermal stability z-score (potassium arsenate) |
| --- | --- | --- | --- |
| SLC46A1 (UniProt Q96NT5) | -0.375 | 0.408 | -1.24 |
| SLC52A2 (UniProt Q9HAB3) | 0.194 | 0.164 | -0.17 |
| SLCO4A1 (UniProt Q96BD0) | 0.0123 | -0.101 | 0.0663 |
| SLFN5 (UniProt Q08AF3) | -0.884 | -1.21 | -0.568 |
| SLIRP (UniProt Q9GZT3) | -0.917 | -0.197 | 0.123 |
| SLK (UniProt Q9H2G2) | 0.413 | 0.153 | -0.419 |
| SLMAP (UniProt Q14BN4) | -0.467 | -0.173 | 1.45 |
| SLTM (UniProt Q9NWH9) | 0.712 | -0.493 | -0.561 |
| SLU7 (UniProt O95391) | -0.353 | -0.364 | -0.0775 |
| SMAD2 (UniProt Q15796) | -0.492 | 0.118 | -1.26 |
| SMAD4 (UniProt Q13485) | -0.233 | -0.519 | -0.746 |
| SMAP1 (UniProt Q8IYB5) | -0.131 | -0.152 | -0.139 |
| SMAP2 (UniProt Q8WU79) | -1.95 | -0.774 | -1.45 |
| SMAP (UniProt O00193) | 0.384 | 0.48 | -0.154 |
| SMARCA2 (UniProt P51531) | -0.0738 | -0.0901 | -0.174 |
| SMARCA4 (UniProt P51532) | 0.212 | 0.272 | -0.673 |
| SMARCA5 (UniProt O60264) | 0.76 | 1.44 | -0.922 |
| SMARCAD1 (UniProt Q9H4L7) | -1.27 | -0.234 | -0.159 |

| Target | thermal stability z-score (lipoamide; [1]) | thermal stability z-score (lipoamide; arsenate co-treatment: none) | thermal stability z-score (potassium arsenate) |
| --- | --- | --- | --- |
| SMARCAL1 (UniProt Q9NZC9) | 0.0881 | -0.0213 | -0.0552 |
| SMARCB1 (UniProt Q12824) | -0.25 | -0.186 | -0.198 |
| SMARCC1 (UniProt Q92922) | 0.791 | 1.14 | -0.204 |
| SMARCC2 (UniProt Q8TAQ2) | 1.35 | 1.85 | 0.305 |
| SMARCD1 (UniProt Q96GM5) | -0.0223 | 0.0841 | -0.164 |
| SMARCD2 (UniProt Q92925) | 0.132 | 0.101 | -0.0687 |
| SMARCE1 (UniProt Q969G3) | 1.96 | 1.55 | 0.125 |
| SMC1A (UniProt Q14683) | 0.323 | 0.28 | -0.186 |
| SMC2 (UniProt O95347) | 0.528 | 0.546 | 0.802 |
| SMC3 (UniProt Q9UQE7) | 0.0797 | 0.288 | -0.181 |
| SMC4 (UniProt Q9NTJ3) | 0.387 | 1.46 | 0.763 |
| SMC5 (UniProt Q8IY18) | 0.427 | -0.175 | 1.83 |
| SMC6 (UniProt Q96SB8) | -0.138 | 0.113 | 0.067 |
| SMCHD1 (UniProt A6NHR9) | -0.13 | -0.0876 | -0.528 |
| SMG1 (UniProt Q96Q15) | -0.284 | -0.117 | 0.119 |
| SMG5 (UniProt Q9UPR3) | -0.0554 | 0.0814 | -0.104 |
| SMG7 (UniProt Q92540) | -0.0753 | -0.0219 | -0.0408 |
